Data from patent publication US7544814B2, “[3.2.0] Heterocyclic compounds and methods of using the same” (Nereus Pharmaceuticals, Inc., priority 2004, dated 2009).
Several values for one entry are separate records, joined by “and”; a condition that tells them apart may be missing. Equal values may be shown once. Read-outs that look alike come from different tables or passages of the source.

What was measured:
[1] = test system: B16-F10; test: Cell growth inhibition (resazurin), B16-F10; settings: from EC50 values
[2] = test system: HT-29; test: Cell growth inhibition (resazurin), HT-29; settings: from EC50 values
[3] = test system: NCI-H292; test: Cell growth inhibition (resazurin), NCI-H292; settings: from EC50 values
[4] = test system: NF-κB; test: NF-κB-mediated luciferase reporter gene assay, HEK293 NF-κB/Luc cells, TNF-α stimulation; assay type: cell-based, human
In short: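 Cells seeded at 1.5×10^4/well in phenol-red free DMEM, pretreated 1 h with 8-point half-log compound dilutions (DMSO stocks), then stimulated with TNF-α (10 μl of 50 ng/ml solution) for 6 h. Luciferase read as RLU after 10 min with Steady Lite reagent at room temperature.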

[5] = test system: U266; test: Cell growth inhibition (resazurin), U266; settings: for EC50: 48 hours drug exposure
[6] = biological target: T1, trypsin-like activity of purified rabbit muscle 20S proteasome (Oryctolagus cuniculus, UniProt G1SWK8); test: In vitro inhibition of 20S proteasome trypsin-like activity (Boc-LRR-AMC); settings: under the conditions tested
T1 sequence (G1SWK8 1-271): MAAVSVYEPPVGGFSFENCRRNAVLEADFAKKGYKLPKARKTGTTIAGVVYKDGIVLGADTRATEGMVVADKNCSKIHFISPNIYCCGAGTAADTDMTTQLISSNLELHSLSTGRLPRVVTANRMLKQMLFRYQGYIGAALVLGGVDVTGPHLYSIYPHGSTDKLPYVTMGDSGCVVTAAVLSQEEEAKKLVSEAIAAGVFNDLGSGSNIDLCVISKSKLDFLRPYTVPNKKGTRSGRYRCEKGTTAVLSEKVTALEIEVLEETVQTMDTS

[7] = biological target: T2, chymotrypsin-like activity of purified rabbit muscle 20S proteasome (Oryctolagus cuniculus, UniProt G1T4Q9); test: In vitro inhibition of 20S proteasome chymotrypsin-like activity (suc-LLVY-AMC); settings: EC50 Chymotrypsin-like, Table 6, values in nM
T2 sequence (G1T4Q9 1-263): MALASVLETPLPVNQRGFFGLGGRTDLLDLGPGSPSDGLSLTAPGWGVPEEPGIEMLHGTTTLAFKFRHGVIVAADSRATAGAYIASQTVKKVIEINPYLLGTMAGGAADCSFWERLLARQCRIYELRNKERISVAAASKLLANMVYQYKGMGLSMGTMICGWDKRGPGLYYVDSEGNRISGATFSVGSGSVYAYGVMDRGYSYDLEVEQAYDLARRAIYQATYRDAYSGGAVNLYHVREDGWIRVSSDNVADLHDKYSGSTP

[8] = test system: OVCAR-3; test: Cell growth inhibition (resazurin), OVCAR-3
[9] = test system: RPMI 8226; test: Cell growth inhibition (resazurin), RPMI 8226; settings: for EC50: 48 hours drug exposure
[10] = test system: PC-3; test: Cell growth inhibition (resazurin), PC-3; assay type: cell-based, human; settings: from EC50 values
[11] = biological target: T1, trypsin-like activity of purified rabbit muscle 20S proteasome; test: biochemical
[12] = test system: LeTx-mediated cytotoxicity of RAW 264.7 cells; settings: read-out: EC50 for inhibition of RAW 264.7 cell cytotoxicity mediated by anthrax lethal toxin; 45 minute preincubation, 1 μg/ml LF and PA, six hours; maximum concentration 330 nM
[13] = test system: MDA-MB-231; test: Cell growth inhibition (resazurin), MDA-MB-231; settings: from EC50 values
[14] = biological target: T3, caspase-like activity of purified rabbit muscle 20S proteasome (Oryctolagus cuniculus, UniProt A0A5F9DQW2); test: In vitro inhibition of 20S proteasome caspase-like activity (Z-LLE-AMC)
T3 sequence (A0A5F9DQW2 1-212): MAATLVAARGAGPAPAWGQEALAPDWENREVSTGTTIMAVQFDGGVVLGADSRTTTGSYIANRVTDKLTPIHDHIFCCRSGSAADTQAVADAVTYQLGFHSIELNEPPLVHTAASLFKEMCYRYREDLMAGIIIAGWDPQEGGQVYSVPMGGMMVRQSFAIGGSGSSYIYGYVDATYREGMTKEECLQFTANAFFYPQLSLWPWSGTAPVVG

[15] = Stability in solution; assay type: physicochemical; settings: converted to VI-1B; mixture of II-48 and VI-1B in the ratio of 7:3
Description: The reaction mixture was stirred at room temperature for about 3 hours. The solvent was evaporated from the reaction mixture to yield the compound of Formula II-48, which was purified by reversed phase HPLC using Ace 5u C18 column (150 mm×22 mm ID) with a solvent gradient of 10% to 70% H2O/Acetonitrile over 15 min, 70 to 100% Acetonitrile over 5 min, holding at 100% Acetonitrile for 4 min, at a flow rate of 14.5 ml/min. Diode array detector was used to monitor the purification process. Compound II-48 (10 mg) eluted as a pure compound at 8.255 min. […] Compound VI-1B: UV (Acetonitrile/H2O) λmax 235 (sh) nm; ESMS, m/z 585.2 (M+H)^−.

C[C@@]12OC(=O)[C@]1([C@@H](O)[C@H]1CCCC3OC31)NC(=O)[C@@H]2CCCl (single isomer, unassigned) [Formula II-5A]
cytotoxicity against B16-F10, in words [1]: cytotoxic | cytotoxicity against HT-29, in words [2]: cytotoxic | cytotoxicity against NCI-H292, in words [3]: cytotoxic | effect on luciferase activity upon TNF-α stimulation, in words ([4]; pretreatment of NF-κB/Luc 293 cells): dose-dependent decrease | EC50 ([4]; read-out: EC50, NF-κB-mediated luciferase reporter gene assay, Table 5, values in nM, 1 hr pretreatment, TNF-α 6 hr): 33 nM | cytotoxicity against U266, in words ([5]; from EC50 values): cytotoxic | EC50 ([5]; read-out: EC50 against U266, Table 1): 9 nM | EC50 ([5]; read-out: U266 EC50, Table 2): 10 nM and 9 nM | inhibition of the trypsin-like activity of the 20S proteasome, in words [6]: able to inhibit | EC50 [7]: 6 nM and 7 nM | cytotoxicity against OVCAR-3, in words ([8]; from EC50 values): cytotoxic | EC50 ([8]; read-out: EC50 against OVCAR-3, Table 1, 48 hours drug exposure): 64 nM | cytotoxicity against RPMI 8226, in words ([9]; from EC50 values): cytotoxic | EC50 ([9]; read-out: EC50 against RPMI 8226, Table 1): 29 nM | EC50 ([9]; read-out: RPMI 8226 EC50, Table 2, mean ± SD where n≥3): 36 nM and 29 nM | cytotoxicity against PC-3, in words [10]: cytotoxic | EC50 [11]: 90 nM | EC50 [12]: 3 nM | cytotoxicity against MDA-MB-231, in words [13]: cytotoxic | EC50 ([14]; EC50 Caspase-like, Table 6, values in nM): 535 nM and 438 nM | EC50 ([14]; EC50 values, caspase-like activity, summary of Table 6): 213 to 850 nM

C[C@]1(O)[C@@H](CCCl)C(=O)N[C@]1(C(=O)SCC(NC(=O)CCC(N)C(=O)O)C(=O)NCC(=O)O)[C@@H](O)[C@@H]1C=CCCC1 (stereo partly shown) [Formula II-48]
stability in solution [15]: unstable in solution
